Laboratory results published in patent US7998999B2, “Cyclohexyl substituted pyrrolidinones as inhibitors of 11-beta-hydroxysteroid dehydrogenase 1” (Eli Lilly and Company, priority 2006, dated 2011).
pIC50: −log10 of the molar value.

Key:
[1] = biological target: recombinant human 11β-HSD type 1 enzyme (Homo sapiens, UniProt P28845); assay: 11β-HSD Type 1 Enzyme Assay (NADPH fluorescence); type: biochemical; conditions: three hour incubation at room temperature, read-out: Human 11-βHSD1 IC50
Experimental: 11β-HSD Type 1 Enzyme Assay
Human 11β-HSD type 1 activity is measured by assaying NADPH production by fluorescence assay. Solid compounds are dissolved in DMSO to a concentration of 10 mM. Twenty microliters of each are then transferred to a column of a 96-well polypropylene Nunc plate where they are further diluted 50-fold followed by subsequent two-fold titration, ten times across the plate with additional DMSO using a Tecan Genesis 200 automated system. Plates are then transferred to a Tecan Freedom 200 system with an attached Tecan Temo 96-well head and an Ultra 384 plate reader. Reagents are supplied in 96-well polypropylene Nunc plates and are dispensed individually into black 96-well Molecular Devices High Efficiency assay plates (40 μL/well capacity) in the following fashion: 9 μL/well of substrate (2.22 mM NADP, 55.5 μM Cortisol, 10 mM Tris, 0.25% Prionex, 0.1% Triton ×100), 3 μL/well of water to compound wells or 3 μL to control and standard wells, 6 μL/well recombinant human 11β-HSD type 1 enzyme, 2 μL/well of compound dilutions. For ultimate calculation of percent inhibition, a series of wells are added that represent assay minimum and maximum: one set containing substrate with 667 μM carbenoxolone (background), and another set containing substrate and enzyme without compound (maximum signal). Final DMSO concentration is 0.5% for all compounds, controls and standards. Plates are then placed on a shaker by the robotic arm of the Tecan for 15 seconds before being covered and stacked for a three hour incubation period at room temperature. Upon completion of this incubation, the Tecan robotic arm removes each plate individually from the stacker and places them in position for addition of 5 μL/well of a 250 μM carbenoxolone solution to stop the enzymatic reaction. Plates are then shaken once more for 15 seconds then placed into an Ultra 384 microplate reader (355EX/460EM) for detection of NADPH fluorescence.

[2] = biological target: T1, 11β-HSD1 in primary human aortic smooth muscle cells (AoSMC) (Homo sapiens, UniProt P28845); assay: Human Aortic Smooth Muscle Cell Assay (cortisone to cortisol conversion); type: cell-based; conditions: AoSMC induced with hTNFα, 10 μM cortisone, cortisol by time resolved immunoassay
T1 construct: containing 12 ng/mL hTNFα to induce expression of 11β-HSD1; endogenous in cells; host or cells: primary human aortic smooth muscle cells (AoSMC), induced with hTNFα
Experimental: Human Aortic Smooth Muscle Cell Assay
Primary human aortic smooth muscle cells (AoSMC) are cultured in 5% FBS growth medium to a passage number of 6, then pelleted by centrifugation and resuspended at a density of 9×10^4 cells/mL in 0.5% FBS assay medium containing 12 ng/mL hTNFα to induce expression of 11β-HSD1. Cells are seeded into 96-well tissue culture assay plates at 100 μL/well (9×10^3 cells/well) and incubated for 48 hours at 37° C., 5% CO2. Following induction, cells are incubated for 4 hours at 37° C., 5% CO2 in assay medium containing test compounds then treated with 10 μL/well of 10 μM cortisone solubilized in assay medium, and incubated for 16 hours at 37° C., 5% CO2. Medium from each well is transferred to a plate for subsequent analysis of cortisol using a competitive fluorescence resonance time resolved immunoassay. In solution, an allophycocyanin (APC)-cortisol conjugate and free cortisol analyte compete for binding to a mouse anti-cortisol antibody/Europium (Eu)-anti mouse IgG complex. Higher levels of free cortisol result in diminishing energy transfer from the Europium-IgG to the APC-cortisol complex resulting in less APC fluorescence. Fluorescent intensities for Europium and APC are measured using a LJL Analyst AD. Europium and APC excitation is measured using 360 nm excitation and 615 nm and 650 nm emission filters respectively. Time resolved parameters for Europium were 1000 μs integration time with a 200 μs delay. APC parameters are set at 150 μs integration time with a 50 μs delay. Fluorescent intensities measured for APC are modified by dividing by the Eu fluorescence (APC/Eu). This ratio is then used to determine the unknown cortisol concentration by interpolation using a cortisol standard curve fitted with a 4-parameter logistic equation. These concentrations are then used to determine compound activity by plotting concentration versus % inhibition, fitting with a 4-parameter curve and reporting the IC50.

Chain of recombinant human 11β-HSD type 1 enzyme (P28845 whole entry): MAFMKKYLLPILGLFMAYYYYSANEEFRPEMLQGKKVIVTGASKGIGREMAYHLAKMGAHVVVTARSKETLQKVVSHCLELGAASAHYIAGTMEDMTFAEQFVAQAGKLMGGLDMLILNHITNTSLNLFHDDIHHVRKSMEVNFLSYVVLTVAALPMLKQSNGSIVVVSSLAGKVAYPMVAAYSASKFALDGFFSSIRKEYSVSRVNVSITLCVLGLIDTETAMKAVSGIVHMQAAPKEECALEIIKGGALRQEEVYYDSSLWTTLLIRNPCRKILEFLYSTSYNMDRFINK
T1 sequence (P28845 whole entry): as above

Compound	pIC50 [1]	pIC50 [2]
3-(4-Bromo-2-chloro-benzyl)-trans-1-(4-fluoro-cyclohexyl)-pyrrolidin-2-one [Example 10]	6.60	7.48
O=C1[C@H](Cc2c(Cl)cc(-c3ccc(F)cc3)cc2Cl)CCN1C1CCC(F)(F)CC1 [Example 3, (R)-3-(3,5-Dichloro-4′-fluoro-biphenyl-4-ylmethyl)-1-(4,4-difluoro-cyclohexyl)-pyrrolidin-2-one]	6.44	8.02
Cn1cc(-c2cc(Cl)c(C[C@@H]3CCN(C4CCC(F)(F)CC4)C3=O)c(Cl)c2)cn1 [Example 6, (R)-3-[2,6-Dichloro-4-(1-methyl-1H-pyrazol-4-yl)-benzyl]-1-(4,4-difluoro-cyclohexyl)-pyrrolidin-2-one]	6.52	8.04
O=C1C(Cc2ccc(Br)cc2Cl)CCN1[C@H]1CC[C@@H](F)CC1 (stereo partly drawn) [Example 11, 3-(4-Bromo-2-chloro-benzyl)-cis-1-(4-fluoro-cyclohexyl)-pyrrolidin-2-one]	6.35	8.12
O=C1C(Cc2c(Cl)cc(-c3cccnc3)cc2Cl)CCN1[C@H]1CC[C@@H](F)CC1 (stereo partly drawn) [Example 12, 3-(2,6-Dichloro-4-pyridin-3-yl-benzyl)-cis-1-(4-fluoro-cyclohexyl)-pyrrolidin-2-one]	6.59	8.41
